Results from patent US6521222B1, “Inorganic/organic complexes for reducing skin irritation” (Societe L'Oreal S.A., priority 1999, dated 2003).

Experiments:
[1] = tested on: keratinocytes of Episkin human epidermis reconstituted in vitro; experiment: Cytotoxicity (MTT test) on Episkin reconstructed skin after applying compositions; assay type: cell-based; details: 0.3% (w/V) 5-n-octanoylsalicylic acid added to composition A
Method: (§1) The Episkin system is a model of human epidermis reconstituted in vitro, which was manufactured by the company Episkin. The epidermis contained only one cell type: keratinocytes. The keratinocytes were seeded onto a dermis equivalent which was composed of various types of collagen.
(§2) After a period of proliferation of the keratinocytes immersed in the culture medium, the system was raised up to the air/liquid interface.
(§3) The assignee hereof has studied the cytotoxicity of the keratinocytes (3-(4,5-dimethylthiazol-2-yl)-2,5-diphenyltetrazolium bromide test) after applying to this reconstructed skin model various compositions in a proportion of 150 mg/cm^2, and maintaining same in an incubator at 37° C./5% CO2 for a period of 18 hours. Each composition was tested on two epidermides of 1.13 cm^2.
(§4) The basic composition A was:
(§5) The other compositions tested corresponded to this composition A to which 5-n-octanoylsalicylic acid, alone or in admixture with a compound of formula (I) according to the invention, was added.
(§6) The measurement of cell viability was carried out immediately after rinsing of the compositions with phosphate buffered saline (PBS).

[2] = as above; assay type: cell-based, human; details: human; composition A + 0.5% (w/V) 5-n-octanoylsalicylic acid, no compound of formula (I); 150 mg/cm^2, 18 hours, 37° C./5% CO2; read-out: % of cell viability
Method: as §1, §2, §3, §4, §5, §6

Compound: CCCCCCCC(=O)c1ccc(O)c(C(=O)O)c1 [5-n-octanoylsalicylic acid]
- cytotoxicity of the composition [1]: cytotoxic
- viability at 18 h, 0.5 % (w/V) [2]: 7.8%
